Test results: patent publication US6040309A, “Benzothiophene derivatives useful in therapy” (Pfizer, Inc., priority 1997, dated 2000)
Bridges are numbered along the chain shown (N, C = ends). Where no end group is shown, it is not given here.

What was measured:
[1] = target: rabbit ETA receptor; settings: cited from earlier work
[2] = target: human ETA receptor; settings: cited from earlier work
[3] = target: T1, ETA receptor (Rattus norvegicus, UniProt P26684); assay: In Vitro Vascular Smooth Muscle Activity, Rat Aorta (ET-1 contraction; Test B); type: cell-based; settings: read-out: pA2 (converted)
T1 construct: Rat aortae are cleaned of connective tissue and fat and cut into helical strips; from tissue; host or cells: rat aorta, helical strips, endothelium removed
T1 sequence (P26684 21-426): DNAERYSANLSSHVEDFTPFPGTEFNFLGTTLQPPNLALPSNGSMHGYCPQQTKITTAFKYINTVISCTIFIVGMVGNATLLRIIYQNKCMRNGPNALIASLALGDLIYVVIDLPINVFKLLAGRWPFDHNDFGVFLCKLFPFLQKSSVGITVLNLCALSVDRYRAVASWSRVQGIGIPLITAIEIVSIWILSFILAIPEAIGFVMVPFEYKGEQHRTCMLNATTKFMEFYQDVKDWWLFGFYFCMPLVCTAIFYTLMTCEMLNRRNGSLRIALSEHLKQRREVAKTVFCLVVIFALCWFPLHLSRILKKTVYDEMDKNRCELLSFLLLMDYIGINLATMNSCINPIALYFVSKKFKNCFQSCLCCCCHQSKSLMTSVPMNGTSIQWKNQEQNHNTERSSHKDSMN
Source text: B. In Vitro Vascular Smooth Muscle Activity
Rat aortae are cleaned of connective tissue and fat and cut into helical strips approx 4 mm in width. The endothelium is removed by dragging the luminal surface of the tissue gently across filter paper moistened with Krebs solution of composition (mM) NaCl 130, KCl 5.6, NaHCO3 25, Glucose 11.1, NaH2 PO4 0.6, CaCl2 2.16, MgCl2 0.5, gassed with 95% O2 /5% CO2. The strips are mounted in isolated organ baths in Krebs solution under a resting tension of 1 gram. Organ bath solutions are maintained at 37° C. and continuously aerated with 95% O2 /5% CO2. […] After equilibration in the organ bath for 1 hour, tissues are contracted by the addition of KCl to a final concentration of 60 mM. The KCl is removed by replacing the Krebs solution, with two further washes with Krebs solution. To determine the potency of an ETA receptor antagonist, two tissues are cumulatively dosed with ET-1 (0.1 nM-1 μM); other tissues are dosed with ET-1 (0.1 nM-1 μM) in duplicate, beginning 30 minutes after the inclusion in the organ bath medium of the test compound. Sufficient tissues are used per experiment to generate dose-response curves to ET-1 in the absence and the presence of at least 3 concentrations of antagonist. Data are expressed as the mean±s.e.m. Dissociation constants (kb) of competitive antagonists are calculated by the method of Arunlakshana and Schild.

[4] = tested on: neointimal formation; settings: cited from earlier work

Compound	IC50 [1] [µM]	Kb [3] [µM]	other results
COc1cccc(Sc2c(C(=O)O)sc3ccccc23)c1 [3-[(3-methoxyphenyl)sulfanyl]benzo[b]thiophene-2-carboxylic acid]	5.9		
CC(C)Oc1c(C(=O)O)sc2ccc(OCc3ccccc3)cc12 [5-benzyloxy-3-isopropoxybenzo[b]thiophene-2-carboxylic acid]	6		IC50 [2]: 8.8 µM
O=C(O)c1sc2cc(OCc3cccnc3)ccc2c1Sc1ccccc1O [Example 56]		0.0148	
O=C(O)c1sc2cc(Cn3ccnc3)ccc2c1Sc1ccccc1O [Example 71]		0.229	
CCCOc1ccc2c(c1)[C@@H](c1ccc(OC)cc1OCC(=O)O)[C@H](C(=O)O)[C@H]2c1ccc2c(c1)OCO2 [SB-209670]			reduction in neointimal formation ([4]; relative to control animals): 50%
ET-1: isoform of endothelin, 21-amino acid peptide, potent vasoconstrictor (CSCSSLMDKECVYFCHLDIIW; disulfide 1-15, 3-11; ends not checked; UniProt P05305 53-73, looked up)			effect on neointimal formation ([4]; in rats after balloon angioplasty): potentiate neointimal formation
